# Assay results as given in ChEMBL document CHEMBL5120922, “Discovery, Optimization, and Evaluation of Potent and Selective PI3Kδ-γ Dual Inhibitors for the Treatment of B-cell Malignancies” (J Med Chem, 2022).
# Experiments:
# Assay type in all cases: functional
# DOHH-2 [1] = assay: Induction of apoptosis in human DOHH-2 cells assessed as viable cells at 1 uM incubated for 48 hrs by annexin V-FITC and PI staining based flow cytometry analysis (reference value: 95.4 %); settings: read-out: Activity
# SU-DHL-6 [2] = assay: Induction of apoptosis in human SU-DHL-6 cells assessed as necrotic cells at 1.5 uM incubated for 48 hrs by annexin V-FITC and PI staining based flow cytometry analysis (reference value: 0.32%)
# SU-DHL-6 [3] = assay: Induction of apoptosis in human SU-DHL-6 cells assessed as late apoptotic cells at 1.5 uM incubated for 48 hrs by annexin V-FITC and PI staining based flow cytometry analysis (reference value: 3.88 %)
# SU-DHL-6 [4] = assay: Induction of cell cycle arrest in human SU-DHL-6 cells assessed as accumulation of cells at G0/G1 phase at 0.5 uM incubated for 24 hrs by PI staining based FACScan flow cytometry analysis (reference value: 55.61 %)
# DOHH-2 [5] = assay: Induction of cell cycle arrest in human DOHH-2 cells assessed as accumulation of cells at G2/M phase at 1 uM incubated for 24 hrs by PI staining based flow cytometry analysis (reference value: 21.42 %)
# DOHH-2 [6] = assay: Induction of cell cycle arrest in human DOHH-2 cells assessed as accumulation of cells at S phase at 1 uM incubated for 24 hrs by PI staining based flow cytometry analysis (reference value: 55.11 %)
# SU-DHL-6 [7] = assay: Induction of apoptosis in human SU-DHL-6 cells assessed as viable cells at 1.5 uM incubated for 48 hrs by annexin V-FITC and PI staining based flow cytometry analysis (reference value: 87.0 %); settings: read-out: Activity
# DOHH-2 [8] = assay: Induction of apoptosis in human DOHH-2 cells assessed as late apoptotic cells at 1 uM incubated for 48 hrs by annexin V-FITC and PI staining based flow cytometry analysis (reference value: 2.20 %)
# DOHH-2 [9] = assay: Induction of apoptosis in human DOHH-2 cells assessed as necrotic cells at 1 uM incubated for 48 hrs by annexin V-FITC and PI staining based flow cytometry analysis (Rvb =0.29 %)
# SU-DHL-6 [10] = assay: Induction of cell cycle arrest in human SU-DHL-6 cells assessed as accumulation of cells at S phase at 0.5 uM incubated for 24 hrs by PI staining based FACScan flow cytometry analysis (reference value: 24.18 %)
# SU-DHL-6 [11] = assay: Induction of cell cycle arrest in human SU-DHL-6 cells assessed as accumulation of cells at G2/M phase at 0.5 uM incubated for 24 hrs by PI staining based FACScan flow cytometry analysis (reference value: 20.21 %)
# SU-DHL-6 [12] = assay: Induction of apoptosis in human SU-DHL-6 cells assessed as early apoptotic cells at 1.5 uM incubated for 48 hrs by annexin V-FITC and PI staining based flow cytometry analysis (reference value: 8.81 %)
# DOHH-2 [13] = assay: Induction of apoptosis in human DOHH-2 cells assessed as early apoptotic cells at 1 uM incubated for 48 hrs by annexin V-FITC and PI staining based flow cytometry analysis (reference value: 2.09 %)
# DOHH-2 [14] = assay: Induction of cell cycle arrest in human DOHH-2 cells assessed as accumulation of cells at G0/G1 phase at 1 uM incubated for 24 hrs by PI staining based flow cytometry analysis (reference value: 23.47 %)
structure (smiles),measurement,setting,value
C=CC(=O)N1CCC[C@@H](n2nc(-c3ccc(Oc4ccccc4)cc3)c3c(N)ncnc32)C1 [IBRUTINIB],viability at 1 µM,DOHH-2 [1],79.9%
same,Activity,SU-DHL-6 [2],0.15%
same,Activity,SU-DHL-6 [3],4.62%
same,Activity,SU-DHL-6 [4],58.11%
same,Activity,DOHH-2 [5],13.92%
same,Activity,DOHH-2 [6],40.49%
same,viability at 1.5 µM,SU-DHL-6 [7],86.1%
same,Activity,DOHH-2 [8],10.7%
same,Activity,DOHH-2 [9],0.7%
same,Activity,SU-DHL-6 [10],29.85%
same,Activity,SU-DHL-6 [11],12.04%
same,Activity,SU-DHL-6 [12],9.9%
same,Activity,DOHH-2 [13],8.69%
same,Activity,DOHH-2 [14],46.69%
